Values after ≈ are worked out from the molar mass of the structure shown. Read-outs that look alike come from different tables or passages of the source.
Columns and labels:
[1] = result in words; cited from earlier work
[2] = system: HIV drug-resistant strain: MDR; experiment: MAGI assay using HeLa CD4/LTR-beta-Gal cells, MDR; format: cell-based; conditions: Human immunodeficiency virus 1, HeLa
Description: (§1) 2) MAGI Assay Using HeLa CD4/LTR-beta-Gal Cells
(§2) 1. HeLa CD4/LTR-beta-Gal cells are added to 96 wells such that the number of cells in each well is 10,000. After 12-24 hours, the culture medium is removed, and a diluted test agent (100 μl) is added.
(§3) 2. A variety of HIV strains (wild strain: WT, drug-resistant strain: MDR, M184V, NL4-3, 104pre, and C; each equivalent to 50 TCID50) are added, and the cells are further cultured for 48 hours.
(§4) 3. The cells are fixed for five minutes using PBS containing 1% formaldehyde and 0.2% glutaraldehyde.
(§5) 4. After the fixed cells are washed with PBS three times, the cells are stained with 0.4 mg/ml X-Gal for one hour, and the number of blue-stained cells of each well is counted under a transmission stereoscopic microscope. The test agent concentration at which blue-stained cells decrease to 50% and 90% in number represents EC50 and EC90, respectively.

[3] = Cytotoxicity by use of HeLa CD4/LTR-beta-Gal cells; format: cell-based; conditions: human
Description: (§6) 5. In a manner similar to that employed in the MTT method, cytotoxicity is measured by use of HeLa CD4/LTR-beta-Gal cells.

HIV-1 IIIb strain = conditions: MT-4 cells, result in words; cited from earlier work
[4] = Cytotoxicity, MTT method using non-infected MT-4 cells; format: cell-based; conditions: human
Description: (§7) 1) MTT Method Using MT-4 Cells
(§8) 1. A test agent (100 μl) is diluted on a 96-well microplate. MT-4 cells infected with HIV-1 (IIIb strain; 100 TCID50) and non-infected MT-4 cells are added to the microplate such that the number of cells in each well becomes 10,000. The cells are cultured at 37° C. for five days.
(§9) 2. MTT (20 μl, 7.5 mg/ml) is added to each well, and the cells are further cultured for 2-3 hours.
(§10) 3. The cultured medium (120 μl) is sampled, and MTT terminating solution (isopropanol containing 4% Triton X-100 and 0.04N HCl) is added to the sample. The mixture is stirred to form formazane, which is dissolved. The absorbance at 540 nm of the solution is measured. Since the absorbance is proportional to the number of viable cells, the test agent concentration at which a half value of the absorbance is measured in a test using infected MT-4 cells represents EC50, whereas the test agent concentration at which a half value of the absorbance is measured in a test using non-infected MT-4 cells represents CC50.

HIV wild strain: WT = experiment: MAGI assay using HeLa CD4/LTR-beta-Gal cells, WT; format: cell-based
Description: as §1, §2, §3, §4, §5

HIV-1 (IIIb strain) = experiment: Anti-HIV activity, MTT method using MT-4 cells; format: cell-based; conditions: Human immunodeficiency virus 1, IIIB
Description: (2) Anti-human Immunodeficiency Virus (HIV) Activity
as §7, §8, §9, §10

[5] = system: HIV drug-resistant strain: M184V; experiment: MAGI assay using HeLa CD4/LTR-beta-Gal cells, M184V; format: cell-based; conditions: Human immunodeficiency virus 1, HeLa
Description: as §1, §2, §3, §4, §5

HIV strain NL4-3 = experiment: MAGI assay using HeLa CD4/LTR-beta-Gal cells, NL4-3; format: cell-based
Description: as §1, §2, §3, §4, §5

[6] = system: HeLa CD4/LTR-beta-Gal cells; experiment: Cytotoxicity by use of HeLa CD4/LTR-beta-Gal cells; format: cell-based; conditions: Table 6
Description: as §6

HIV strain 104pre = experiment: MAGI assay using HeLa CD4/LTR-beta-Gal cells, 104pre; format: cell-based
Description: as §1, §2, §3, §4, §5

HIV strain C = experiment: MAGI assay using HeLa CD4/LTR-beta-Gal cells, C; format: cell-based; conditions: Human immunodeficiency virus 1, HeLa; for EC90: read-out: HIV C (EC90, μM); for EC50: read-out: HIV C EC50, μM
Description: as §1, §2, §3, §4, §5

multi-PI resistant HIV-1 = conditions: result in words; cited from earlier work
[7] = read-out: HIV MDR (EC50, μg/ml), Table 5
[8] = Table 5, read-out: Cytotoxicity (CC50, μg/ml)
[9] = non-infected MT-4 cells, Table 2, read-out: Cytotoxicity (CC50, μg/ml)
[10] = Human immunodeficiency virus 1, HeLa, read-out: HIV WT (EC50, μg/ml), Table 5
[11] = MT4, Table 2, read-out: HIV-1 (EC50, μg/ml)
[12] = read-out: HIV M184V (EC50, μg/ml), Table 5
[13] = read-out: HIV MDR (EC50, μg/ml), Table 6
[14] = Human immunodeficiency virus 1, HeLa, read-out: HIV WT (EC50, μg/ml), Table 6
[15] = MT4, Table 4, read-out: HIV-1 (EC50)
[16] = MT4, read-out: HIV-1 (EC50, μg/ml), Table 2
[17] = MT4, read-out: HIV-1 (EC50, μg/ml), Table 3
[18] = read-out: HIV M184V (EC50, μg/ml), Table 6
[19] = Table 6, read-out: Cytotoxicity (CC50, μg/ml)
[20] = non-infected MT-4 cells, Table 3, read-out: Cytotoxicity (CC50, μg/ml)
[21] = MT4, Table 3, read-out: HIV-1 (EC50, μg/ml)

C#C[C@]1(CO)O[C@@H](n2cc(C)c(=O)[nH]c2=O)[C@H](O)[C@@H]1O [1-(4-C-ethynyl-β-D-ribo-pentofuranosyl)thymine]
biological activities such as antiviral and antitumor activities [1]: no such biological activities have been observed

C#C[C@]1(CO)O[C@@H](n2cc(C)c(=O)[nH]c2=O)C[C@@H]1O [4′-C-ethynyl thymidine, 4′-C-ethynylthymidine, reference compound]
EC50 [2, 7]: 0.033 µg/mL (≈ 0.124 µM) | CC50 [3, 8]: > 100 µg/mL | anti-HIV activity compared with AZT (HIV-1 IIIb strain): weaker than that of AZT | CC50 at 5 days [4, 9]: > 100 µg/mL | EC50 (HIV wild strain: WT; [10]): 0.097 µg/mL (≈ 0.364 µM) | EC50 (HIV-1 (IIIb strain); [11]): 0.22 µg/mL | EC50 [5, 12]: 0.049 µg/mL (≈ 0.184 µM)

C#C[C@]1(CO)O[C@@H](n2ccc(N)nc2=O)[C@H](O)[C@@H]1O [4′-C-ethynylcytidine]
biological activities such as antiviral and antitumor activities [1]: no such biological activities have been observed

C#C[C@]1(CO)O[C@@H](n2ccc(=O)[nH]c2=O)[C@H](O)[C@@H]1O [4′-C-ethynyluridine]
biological activities such as antiviral and antitumor activities [1]: no such biological activities have been observed

Cc1cn([C@H]2C[C@H](N=[N+]=[N-])[C@@H](CO)O2)c(=O)[nH]c1=O [AZT, zidovudine, reference compound]
EC50 [2, 7]: 4.1 µg/mL (≈ 15.3 µM) | EC50 [2, 13]: 5.34 µg/mL (≈ 20 µM) | EC90 (HIV strain NL4-3; Human immunodeficiency virus 1, NL43, Table 7, value in parentheses, HeLa CD4/LTR-beta-Gal cells, read-out: HIV NL-43 (EC90)): 4.96 µM | EC50 (HIV strain NL4-3; Human immunodeficiency virus 1, NL43, Table 7, HeLa CD4/LTR-beta-Gal cells, read-out: HIV NL-43 EC50): 0.109 µM | CC50 [3, 8]: > 26.7 µg/mL | Cytotoxicity (CC50, μg/ml) [6]: >26.7 µg/mL | EC90 (HIV strain 104pre; Human immunodeficiency virus 1, Table 7, value in parentheses, HeLa CD4/LTR-beta-Gal cells, read-out: HIV 104 pre (EC90)): 9.66 µM | EC50 (HIV strain 104pre; Human immunodeficiency virus 1, Table 7, HeLa CD4/LTR-beta-Gal cells, read-out: HIV 104 pre EC50): 0.059 µM | CC50 at 5 days ([4]; Table 2, read-out: Cytotoxicity (CC50, μg/ml)): > 0.27 µg/mL | CC50 at 5 days ([4]; Table 3, read-out: Cytotoxicity (CC50, μg/ml)): 9.08 µg/mL | EC50 (HIV wild strain: WT; [10]): 0.0059 µg/mL (≈ 0.0221 µM) | EC50 (HIV wild strain: WT; [14]): 0.0027 µg/mL (≈ 0.0101 µM) | EC50 (HIV-1 (IIIb strain); [15]): 55 nM | EC50 (HIV-1 (IIIb strain); [16]): 0.0016 µg/mL | EC50 (HIV-1 (IIIb strain); [17]): 0.0011 µg/mL | EC50 [5, 12]: 0.0083 µg/mL (≈ 0.0311 µM) | EC50 [5, 18]: 0.0013 µg/mL (≈ 0.00486 µM) | EC90 (HIV strain C): > 10 µM | EC50 (HIV strain C): 3.27 µM

C#C[C@]1(CO)O[C@@H](n2ccc(N)nc2=O)C[C@@H]1O [Compound 13, 4′-C-ethynyl-2′-deoxycytidine]
EC50 [2, 7]: 0.0003 µg/mL (≈ 0.00119 µM) | EC50 (HIV wild strain: WT; Human immunodeficiency virus 1, Table 5, read-out: HIV WT (EC50, μg/ml)): 0.00031 µg/mL (≈ 0.00123 µM) | EC50 (HIV-1 (IIIb strain); [11]): 0.0012 µg/mL | EC50 [5, 12]: 0.00054 µg/mL (≈ 0.00215 µM)

C#C[C@]1(CO)O[C@@H](n2ccc(N)nc2=O)[C@@H](O)[C@@H]1O [Compound 19, 1-(4-C-ethynyl-β-D-arabino-pentofuranosyl)cytosine]
EC50 [2, 7]: 0.021 µg/mL (≈ 0.0786 µM) | CC50 [3, 8]: > 100 µg/mL | CC50 at 5 days [4, 9]: 0.53 µg/mL | EC50 (HIV wild strain: WT; [10]): 0.0019 µg/mL (≈ 0.00711 µM) | EC50 (HIV-1 (IIIb strain); [16]): 0.0115 µg/mL | EC50 [5, 12]: 0.19 µg/mL (≈ 0.711 µM)

C#C[C@]1(CO)O[C@@H](n2cnc3c(N)ncnc32)CC1O (stereo partly drawn) [Compound 23, 9-(2-deoxy-4-C-ethynyl-β-D-ribo-pentofuranosyl)adenine]
EC50 [2, 13]: 0.0017 µg/mL (≈ 0.00618 µM) | CC50 [3, 19]: > 100 µg/mL | CC50 at 5 days [4, 20]: 4.4 µg/mL | EC50 (HIV wild strain: WT; [14]): 0.0012 µg/mL (≈ 0.00436 µM) | EC50 (HIV-1 (IIIb strain); [21]): 0.0027 µg/mL | EC50 [5, 18]: 0.013 µg/mL (≈ 0.0472 µM)

C#C[C@]1(CO)O[C@@H](n2cnc3c(N)nc(N)nc32)CC1O (stereo partly drawn) [Compound 28, 9-(2-deoxy-4-C-ethynyl-β-D-ribo-pentofuranosyl)-2,6-diaminopurine]
EC50 [2, 13]: 0.00029 µg/mL (≈ 0.000999 µM) | CC50 [3, 19]: 2.7 µg/mL (≈ 9.3 µM) | CC50 at 5 days [4, 20]: 0.26 µg/mL | EC50 (HIV wild strain: WT; [14]): 0.00028 µg/mL (≈ 0.000965 µM) | EC50 (HIV-1 (IIIb strain); [17]): 0.0001 µg/mL | EC50 [5, 18]: 0.0017 µg/mL (≈ 0.00586 µM)

C#C[C@]1(CO)O[C@@H](n2cnc3c(=O)[nH]cnc32)CC1O (stereo partly drawn) [Compound 29, 9-(2-deoxy-4-C-ethynyl-β-D-ribo-pentofuranosyl)hypoxanthine]
EC50 [2, 13]: 0.14 µg/mL (≈ 0.507 µM) | CC50 [3, 19]: > 100 µg/mL | CC50 at 5 days [4, 20]: 38 µg/mL | EC50 (HIV wild strain: WT; [14]): 0.22 µg/mL (≈ 0.796 µM) | EC50 (HIV-1 (IIIb strain); [21]): 0.037 µg/mL | EC50 [5, 18]: 4.6 µg/mL (≈ 16.7 µM)

C#C[C@]1(CO)O[C@@H](n2cnc3c(=O)[nH]c(N)nc32)CC1O (stereo partly drawn) [Compound 30, 9-(2-deoxy4-C-ethynyl-β-D-ribo-pentofuranosyl)guanine]
EC50 [2, 13]: 0.0014 µg/mL (≈ 0.00481 µM) | CC50 [3, 19]: 15.2 µg/mL (≈ 52.2 µM) | CC50 at 5 days [4, 20]: 0.41 µg/mL | EC50 (HIV wild strain: WT; [14]): 0.002 µg/mL (≈ 0.00687 µM) | EC50 (HIV-1 (IIIb strain); [17]): 0.00044 µg/mL | EC50 [5, 18]: 0.0023 µg/mL (≈ 0.0079 µM)

C#C[C@]1(CO)O[C@@H](n2cc(F)c(N)nc2=O)C[C@@H]1O [Compound 37, 4′-C-ethynyl-2′-deoxy-5-fluorocytidine]
EC90 (HIV strain NL4-3; Human immunodeficiency virus 1, NL43, HeLa, read-out: HIV NL-43 (EC90, μM)): 0.25 µM | EC50 (HIV strain NL4-3; Human immunodeficiency virus 1, NL43, HeLa, read-out: HIV NL-43 EC50, μM): 0.021 µM | EC90 (HIV strain 104pre; Human immunodeficiency virus 1, HeLa, read-out: HIV 104 pre (EC90, μM)): 0.19 µM | EC50 (HIV strain 104pre; Human immunodeficiency virus 1, HeLa, read-out: HIV 104 pre EC50, μM): 0.022 µM | CC50 at 5 days ([4]; non-infected MT-4 cells, Table 4, read-out: Cytotoxicity (CC50)): > 500000 nM | EC50 (HIV-1 (IIIb strain); [15]): 33 nM | EC90 (HIV strain C): 3.44 µM | EC50 (HIV strain C): 0.122 µM

Cc1ccccc1CNC(=O)[C@H]1N(C(=O)[C@@H](O)[C@H](Cc2ccccc2)NC(=O)c2cccc(O)c2C)CSC1(C)C [JE-2147]
antiviral activity against a multi-PI resistant HIV-1 (multi-PI resistant HIV-1): potent antiviral activity

— patent US20020022722A1, “4'-C-ethynyl pyrimidine nucleoside compounds” (priority 1999, published 2002)
